According to patent publication US20230407243A1, “GENETIC PLATFORM TO INVESTIGATE THE FUNCTIONS OF BACTERIAL DRUG EFFLUX PUMPS” (priority 2022, published 2023):
Like-named read-outs stand apart in the source and are kept apart here.

Assays:
Format in all cases: cell-based, Escherichia coli
[1] = tested on: E. coli EKO-35; assay: microbe, parasite or virus in culture; conditions: for Fold change of MICs: EKO-35 compared to EKO-35 (reference); for MIC: Escherichia coli, EKO35, technical duplicate
Summary of the method: (§1)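 Overnight LB cultures were grown at 37 °C with aeration, then washed into PBS, pH 7.4, to OD600 ~1.0. A 1/2000 dilution in MHB II was exposed to compound dilution series for 18 h at 37 °C. The MIC was taken from corrected OD600.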

[2] = tested on: E. coli ΔtolC; assay: microbe, parasite or virus in culture; conditions: for MIC: Escherichia coli, 18 h, read-out: Minimum Inhibitory Concentration, ΔtolC; for Minimum inhibitory concentration (MIC), ΔtolC: Table 10, without pore, technical duplicate
Summary of the method: as §1

[3] = tested on: wild-type E. coli K-12 str. BW25113; assay: microbe, parasite or virus in culture; conditions: Escherichia coli, BW25113, technical duplicate
Summary of the method: as §1

[4] = tested on: EKO-35 araC::acrEF; assay: MIC susceptibility profiling, efflux platform; conditions: for Fold change of MICs: EKO-35 araC::acrEF compared to EKO-35; for MIC: Escherichia coli, Table 13A, non-porinated, technical duplicate, read-out: Minimum Inhibitory Concentration, EKO-35 araC::acrEF
Summary of the method: as §1

[5] = tested on: EKO-35 araC::emrAB; assay: MIC susceptibility profiling, efflux platform; conditions: for Fold change of MICs: EKO-35 araC::emrAB compared to EKO-35; for MIC: Escherichia coli, Table 13B, non-porinated, technical duplicate, read-out: Minimum Inhibitory Concentration, EKO-35 araC::emrAB
Summary of the method: as §1

[6] = tested on: EKO-35 araC::macAB; assay: MIC susceptibility profiling, efflux platform; conditions: for Fold change of MICs: EKO-35 araC::macAB compared to EKO-35; for MIC: Escherichia coli, Table 13B, non-porinated, technical duplicate, read-out: Minimum Inhibitory Concentration, EKO-35 araC::macAB
Summary of the method: as §1

[7] = tested on: wild-type (WT) K-12-Pore; assay: microbe, parasite or virus in culture; conditions: Escherichia coli, technical duplicate
Summary of the method: (§2)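 Strains carry the fhuA ΔC/Δ4L pore integrated between glmS and pstS under a constitutive promoter, with pore activity checked by vancomycin susceptibility. Overnight LB cultures were adjusted in PBS pH 7.4 to OD600 ~1.0 and diluted 1/2000 into MHB II. 2-fold compound titrations were read by OD600 after 18 h at 37 °C.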

[8] = tested on: ΔtolC-Pore; assay: microbe, parasite or virus in culture; conditions: for MIC: Escherichia coli, 18 h, read-out: Minimum inhibitory concentration, ΔtolC-Pore; for Minimum inhibitory concentration (MIC), Pore ΔtolC: Table 10, with pore, technical duplicate
Summary of the method: as §2

[9] = tested on: EKO-35-Pore; assay: MIC susceptibility profiling, porinated strain; conditions: for Fold changes of MICs: EKO-35-Pore compared to EKO-35-Pore (reference); for MIC: Escherichia coli, technical duplicate
Summary of the method: as §2

[10] = tested on: EKO-35 araC::acrB Pore; assay: MIC susceptibility profiling, porinated efflux platform; conditions: for Fold changes of MICs: EKO-35 araC::acr-B Pore compared to EKO-35-Pore; for MIC: Escherichia coli, Table 14A, porinated, technical duplicate, read-out: Minimum inhibitory concentration, EKO-35 araC::acrB Pore
Summary of the method: as §2

[11] = tested on: EKO-35 araC::acrBD408A Pore; assay: as above; conditions: for Fold changes of MICs: EKO-35 araC::acrBD408A Pore compared to EKO-35-Pore; for MIC: Escherichia coli, EKO-35 araC::acrBD408A Pore, technical duplicate, read-out: Minimum inhibitory concentration
Summary of the method: as §2

[12] = tested on: EKO-35 araC::acrD Pore; assay: as above; conditions: for Fold changes of MICs: EKO-35 araC::acrD Pore compared to EKO-35-Pore; for MIC: Escherichia coli, Table 14A, porinated, technical duplicate, read-out: Minimum inhibitory concentration, EKO-35 araC::acrD Pore
Summary of the method: as §2

[13] = tested on: EKO-35 araC::acrEF Pore; assay: as above; conditions: for Fold changes of MICs: EKO-35 araC::acrEF Pore compared to EKO-35-Pore; for MIC: Escherichia coli, Table 14A, porinated, technical duplicate, read-out: Minimum inhibitory concentration, EKO-35 araC::acrEF Pore
Summary of the method: as §2

[14] = tested on: EKO-35 araC::emrAB Pore; assay: as above; conditions: for Fold changes of MICs: EKO-35 araC::emrAB Pore compared to EKO-35-Pore; for MIC: Escherichia coli, EKO-35 araC::emrAB Pore, technical duplicate, read-out: Minimum inhibitory concentration
Summary of the method: as §2

[15] = tested on: EKO-35 araC::emrKY Pore; assay: as above; conditions: for Fold changes of MICs: EKO-35 araC::emrKY Pore compared to EKO-35-Pore; for MIC: Escherichia coli, EKO-35 araC::emrKY Pore, technical duplicate, read-out: Minimum inhibitory concentration
Summary of the method: as §2

[16] = tested on: EKO-35 araC::macAB Pore; assay: as above; conditions: for Fold changes of MICs: EKO-35 araC::macAB Pore compared to EKO-35-Pore; for MIC: Escherichia coli, EKO-35 araC::macAB Pore, technical duplicate, read-out: Minimum inhibitory concentration
Summary of the method: as §2

[17] = tested on: EKO-35 araC::mdtBC Pore; assay: as above; conditions: for Fold changes of MICs: EKO-35 araC::mdtBC Pore compared to EKO-35-Pore; for MIC: Escherichia coli, EKO-35 araC::mdtBC Pore, technical duplicate, read-out: Minimum inhibitory concentration
Summary of the method: as §2

[18] = tested on: EKO-35 araC::mdtEF Pore; assay: as above; conditions: for Fold changes of MICs: EKO-35 araC::mdtEF Pore compared to EKO-35-Pore; for MIC: Escherichia coli, Table 14A, porinated, technical duplicate, read-out: Minimum inhibitory concentration, EKO-35 araC::mdtEF Pore
Summary of the method: as §2

[19] = tested on: EKO-35 araC::mexCD Pore; assay: as above; conditions: for Fold changes of MICs: EKO-35 araC::mexCD Pore compared to EKO-35-Pore; for MIC: Escherichia coli, EKO-35 araC::mexCD Pore, technical duplicate, read-out: Minimum inhibitory concentration
Summary of the method: as §2

[20] = Table 10, without pore, read-out: Minimum inhibitory concentration (MIC), EKO-35
[21] = Table 13A, non-porinated, read-out: Minimum Inhibitory Concentration, EKO-35
[22] = Table 10, without pore, read-out: Minimum inhibitory concentration (MIC), K-12
[23] = Table 13A, non-porinated, read-out: Minimum Inhibitory Concentration, K-12
[24] = Table 10, with pore, read-out: Minimum inhibitory concentration (MIC), Pore K-12
[25] = Table 14A, porinated, read-out: Minimum inhibitory concentration, K-12 (WT)-Pore
[26] = Table 10, with pore, read-out: Minimum inhibitory concentration (MIC), Pore EKO-35
[27] = Table 14A, porinated, read-out: Minimum inhibitory concentration, EKO-35-Pore

SMILES	Fold change of MICs [1] [fold]	MIC [1, 20] [µg/mL]	MIC [1, 21] [µg/mL]	MIC [2] [µg/mL]	Minimum inhibitory concentration (MIC), ΔtolC [2] [µg/mL]	MIC [3, 22] [µg/mL]	MIC [3, 23] [µg/mL]	Fold change of MICs [4] [fold]	MIC [4] [µg/mL]	Fold change of MICs [5] [fold]	MIC [5] [µg/mL]	Fold change of MICs [6] [fold]	MIC [6] [µg/mL]	MIC [7, 24] [µg/mL]	MIC [7, 25] [µg/mL]	MIC [8] [µg/mL]	Minimum inhibitory concentration (MIC), Pore ΔtolC [8] [µg/mL]	Fold changes of MICs [9] [fold]	MIC [9, 26] [µg/mL]	MIC [9, 27] [µg/mL]	also measured
CC(=O)NC[C@H]1CN(c2ccc(N3CCOCC3)c(F)c2)C(=O)O1 [linezolid]	1	7.81	7.81	7.81	7.813	500	500	2	15.6	1	3.91	1	3.91	125	125	3.91	3.906	1	3.91	3.91	Fold changes of MICs [10]: 16 fold; MIC [10]: 62.5 µg/mL; Fold changes of MICs [11]: 1 fold; MIC [11]: 3.91 µg/mL; Fold changes of MICs [12]: 2 fold; MIC [12]: 7.81 µg/mL; Fold changes of MICs [13]: 2 fold; MIC [13]: 7.81 µg/mL; Fold changes of MICs [14]: 2 fold; MIC [14]: 7.81 µg/mL; Fold changes of MICs [15]: 1 fold; MIC [15]: 3.91 µg/mL; Fold changes of MICs [16]: 1 fold; MIC [16]: 3.91 µg/mL; Fold changes of MICs [17]: 1 fold; MIC [17]: 3.91 µg/mL; Fold changes of MICs [18]: 2 fold; MIC [18]: 7.81 µg/mL; Fold changes of MICs [19]: 2 fold; MIC [19]: 7.81 µg/mL
CN(C)c1ccc(O)c2c1C[C@H]1C[C@H]3[C@H](N(C)C)C(O)=C(C(N)=O)C(=O)[C@@]3(O)C(O)=C1C2=O [minocycline]	1	0.049	0.049	0.098	0.098	0.781	0.781	2	0.098	1	0.049	1	0.049	0.781	0.781	0.098	0.098	1	0.049	0.049	Fold changes of MICs [10]: 8 fold; MIC [10]: 0.391 µg/mL; Fold changes of MICs [11]: 1 fold; MIC [11]: 0.049 µg/mL; Fold changes of MICs [12]: 2 fold; MIC [12]: 0.098 µg/mL; Fold changes of MICs [13]: 2 fold; MIC [13]: 0.098 µg/mL; Fold changes of MICs [14]: 1 fold; MIC [14]: 0.049 µg/mL; Fold changes of MICs [15]: 1 fold; MIC [15]: 0.049 µg/mL; Fold changes of MICs [16]: 1 fold; MIC [16]: 0.049 µg/mL; Fold changes of MICs [17]: 1 fold; MIC [17]: 0.049 µg/mL; Fold changes of MICs [18]: 2 fold; MIC [18]: 0.098 µg/mL; Fold changes of MICs [19]: 1 fold; MIC [19]: 0.049 µg/mL
